We go through two compounds from ChEMBL document CHEMBL5316313, “Discovery of Novel 3-Phenylpiperidine Derivatives Targeting the β-Catenin/B-Cell Lymphoma 9 Interaction as a Single Agent and in Combination with the Anti-PD-1 Antibody for the Treatment of Colorectal Cancer” (J Med Chem, 2023).

Activity calls are given as the source filed them. The rule behind the calls is not given here.

The subject of data set [1] is CT26. Nature of the data set: Antitumor activity against mouse CT26 cells xenografted in BALB/c mouse assessed as tumor growth inhibition at 30 mg/kg, ip QD and measured upto 9 days. Type of data set: functional. The conditions noted are these: CT26, 216 h, time <= 9 day, read-out: TGI.
The nature of data set [2]: Toxicity in BALB/c mouse xenografted with mouse CT26 cells assessed as pathological changes in spleen at 30 mg/kg, ip QD in presence of anti-PD-1 antibody cotreatment at 10 mg/kg,ip BIW by hematoxylin and eosin staining based microscopic analysis. In kind it is organism-based. The conditions noted are these: in vivo.
Data set [3] concerns CT26. The experiment in a line: Antitumor activity in mouse CT26 cells xenografted in BALB/c mouse assessed as increase in IFNgamma-positive CD8+ T cell infiltration into tumor at 30 mg/kg, ip QD by flow cytometry. In kind it is functional, organism-based. For orientation: Flow cytometry measures light scatter and fluorescence of single cells or particles in a stream.
Data set [4] in a line: Microsomal stability in human liver microsomes assessed as intrinsic clearance at […] and measured upto 60 mins by LC-MS/MS analysis. Type of data set: ADME, Microsome. The conditions noted are these: read-out: CLH.
The next data set deals with HEK293. Nature of the data set: Induction of apoptosis in Wnt-independent human HEK293 cells assessed as viable cells at 20 uM incubated for 24 hrs by Annexin V-Alexa Fluor 647/PI staining based flow cytomtery (Rvb=70.5%). In kind it is functional. As to conditions: read-out: Activity.
Data set [5] is described as follows: Microsomal stability in human liver microsomes assessed as half life at […] and measured upto 60 mins by LC-MS/MS analysis. In kind it is ADME, Microsome.
The next data set concerns HCT-116. The experiment in a line: Induction of apoptosis in Wnt-dependent human HCT-116 cells assessed as necrotic cells at 10 uM incubated for 24 hrs by Annexin V-Alexa Fluor 647/PI staining based flow cytomtery (Rvb=1.47%). Type of data set: functional.
For data set [6], the system named is CT26. The conditions noted are these: Mus musculus, BALB/c, dose 30.0 mg/kg, route ip.
Description: In vivo inhibition of Wnt signaling pathway in mouse CT26 cells implanted in BALB/c mouse assessed as reduction in Cd44 mRNA expression level in tumor at 30 mg/kg, ip QD by qRT-PCR analysis
Data set [7] has as its system CT26. The experiment in a line: Induction of apoptosis in Wnt-dependent mouse CT26 cells assessed as necrotic cells at 10 uM incubated for 24 hrs by Annexin V-Alexa Fluor 647/PI staining based flow cytomtery (Rvb=1.04%). In kind it is functional.
Data set [8] concerns the target T1, beta-catenin-B-cell lymphoma 9 protein complex (Homo sapiens, UniProt P35222).
T1 sequence (P35222 whole entry): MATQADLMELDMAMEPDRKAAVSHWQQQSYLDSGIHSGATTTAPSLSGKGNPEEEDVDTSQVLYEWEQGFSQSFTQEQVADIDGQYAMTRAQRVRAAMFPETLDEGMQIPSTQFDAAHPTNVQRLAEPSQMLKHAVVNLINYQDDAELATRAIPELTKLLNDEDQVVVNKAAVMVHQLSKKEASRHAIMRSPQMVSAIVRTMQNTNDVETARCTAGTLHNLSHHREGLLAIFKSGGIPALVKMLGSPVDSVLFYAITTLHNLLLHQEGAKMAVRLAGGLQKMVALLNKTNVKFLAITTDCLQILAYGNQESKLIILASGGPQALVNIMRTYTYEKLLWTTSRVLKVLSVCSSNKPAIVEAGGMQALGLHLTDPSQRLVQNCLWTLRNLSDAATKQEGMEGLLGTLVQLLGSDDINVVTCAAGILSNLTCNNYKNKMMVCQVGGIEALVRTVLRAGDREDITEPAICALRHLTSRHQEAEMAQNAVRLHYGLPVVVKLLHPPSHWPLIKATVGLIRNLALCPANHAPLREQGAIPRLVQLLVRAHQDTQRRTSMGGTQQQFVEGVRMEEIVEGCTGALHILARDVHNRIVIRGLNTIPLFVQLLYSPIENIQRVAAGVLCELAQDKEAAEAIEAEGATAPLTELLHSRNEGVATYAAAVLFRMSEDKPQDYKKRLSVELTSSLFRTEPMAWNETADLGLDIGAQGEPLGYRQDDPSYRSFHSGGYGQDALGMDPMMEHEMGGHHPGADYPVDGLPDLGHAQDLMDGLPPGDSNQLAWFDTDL
T1 sequence (O00512 whole entry): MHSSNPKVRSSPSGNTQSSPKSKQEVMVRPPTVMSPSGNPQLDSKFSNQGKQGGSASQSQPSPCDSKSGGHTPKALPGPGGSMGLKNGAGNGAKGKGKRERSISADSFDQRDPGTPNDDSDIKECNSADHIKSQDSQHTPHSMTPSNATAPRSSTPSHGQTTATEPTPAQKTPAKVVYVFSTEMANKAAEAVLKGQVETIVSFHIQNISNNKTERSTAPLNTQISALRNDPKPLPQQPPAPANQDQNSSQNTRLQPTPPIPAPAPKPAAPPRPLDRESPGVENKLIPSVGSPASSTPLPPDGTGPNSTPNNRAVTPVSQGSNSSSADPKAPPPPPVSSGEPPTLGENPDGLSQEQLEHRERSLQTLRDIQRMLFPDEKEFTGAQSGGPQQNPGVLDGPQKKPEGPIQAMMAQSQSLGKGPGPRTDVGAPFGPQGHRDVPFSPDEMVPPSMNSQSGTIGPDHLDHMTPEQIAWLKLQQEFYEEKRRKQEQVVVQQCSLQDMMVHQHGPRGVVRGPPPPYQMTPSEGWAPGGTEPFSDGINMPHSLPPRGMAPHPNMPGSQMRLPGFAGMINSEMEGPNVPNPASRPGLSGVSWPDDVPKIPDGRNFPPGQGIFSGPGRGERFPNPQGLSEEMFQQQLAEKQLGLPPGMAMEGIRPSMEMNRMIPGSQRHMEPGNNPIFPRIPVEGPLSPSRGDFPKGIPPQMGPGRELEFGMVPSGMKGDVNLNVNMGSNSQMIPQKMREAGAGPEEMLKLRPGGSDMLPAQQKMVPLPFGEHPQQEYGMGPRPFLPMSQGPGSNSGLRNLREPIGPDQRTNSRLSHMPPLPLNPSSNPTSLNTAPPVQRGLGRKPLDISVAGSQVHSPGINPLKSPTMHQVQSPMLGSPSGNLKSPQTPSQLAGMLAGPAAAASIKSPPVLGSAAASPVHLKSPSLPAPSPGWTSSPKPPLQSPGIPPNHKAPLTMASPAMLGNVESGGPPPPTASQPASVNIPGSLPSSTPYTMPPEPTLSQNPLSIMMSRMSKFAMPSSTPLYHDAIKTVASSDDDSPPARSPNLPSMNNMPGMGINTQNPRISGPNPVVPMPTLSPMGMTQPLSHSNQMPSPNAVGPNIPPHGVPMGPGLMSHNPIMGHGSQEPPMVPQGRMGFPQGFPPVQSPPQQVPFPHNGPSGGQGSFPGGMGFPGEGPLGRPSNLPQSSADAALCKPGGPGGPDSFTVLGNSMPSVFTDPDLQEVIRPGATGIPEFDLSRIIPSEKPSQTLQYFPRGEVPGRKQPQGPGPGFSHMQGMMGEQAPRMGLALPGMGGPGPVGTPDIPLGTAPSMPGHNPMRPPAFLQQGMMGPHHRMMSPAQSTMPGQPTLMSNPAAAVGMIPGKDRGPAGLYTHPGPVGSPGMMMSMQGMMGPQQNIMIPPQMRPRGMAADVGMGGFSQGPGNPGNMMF
The experiment in a line: Inhibition of beta-catenin/BCL9 protein-protein interaction in Wnt-independent human HEK293 cells assessed as reduction in Axin2 expression level by qRT-PCR assay. In kind it is cell-based. A general note: Quantitative PCR measures a nucleic acid by following its amplification.

The half-life is the time in which the quantity being followed falls by half. On to `CC(C)c1ccc(-c2cccc(S(=O)(=O)N3CCCC(c4cccc(OC(C)(C)C(=O)NS(=O)(=O)c5ccc(C(F)(F)F)cc5)c4)C3)c2)cc1` (stereo not given), for which the inhibition in vivo at 30 mg/kg in the data set on CT26 [1] is 67.6%. Also, the Activity result in [2] is given as “Non-Toxic”; in the data set on HCT-116 it was 2%; in the data set with CT26 [7] it was 1.91%. In addition, the outcome with CT26 [3] was Active. Further, the microsomal CLint in [4] was 43.2 µL/min/mg. Moreover, the viability at 20 µM in the data set with HEK293 was determined as 64.7%. Besides, the half-life in data set [5] came out at 32.1 min. Further, the inhibition entry with CT26 [6] is “Active”.

One may read the IC50 as the concentration at which inhibition is half-maximal. `O=C1[C@H](Cc2ccc(O)cc2)N2C(=O)CCN(C(=O)NCc3ccccc3)[C@H]2CN1Cc1cccc2ccccc12`: in data set [8], the IC50 was found to be 38.3 µM.
